For assay [1], the system named is WI-38 cells. As to the kind of experiment: CdCl2 (cadmium) resistance assay. The assay is classed as cell-based, human. Conditions: YES/NO; for Assay 2: Cadmium-resistant: * indicates partial. On the procedure: (§1) For many stress conditions tested previously, one significant correlation to longevity is the cellular resistance to H2O2 or CdCl2. Applicants then tested these small molecules, at five different final concentrations (0.25 μM to 20 μM), for cadmium and MMS resistance in WI-38 cells.
(§2) The setups on 384-well plates and incubation times were the same as for H2O2 until the time of incubation with the stressors, which was 12 hours for both cadmium and MMS assays. Applicants tested several conditions, including conditions used to assay fibroblasts from long-lived animals (Salmon et al., 2005). These conditions produced better results with the positive controls (KEAP1 and AKT1 siRNAs) in the MMS assay. Thus, for MMS, the cells were shifted from growth media—OptiMEM+10% FBS, to DMEM (Gibco)+2% BSA (no serum) just before adding small molecules, which occurred 24 hours before MMS addition.
(§3) Isolated small molecules were tested for MMS and cadmium resistance twice in two independent assays. Each small molecule was analyzed at five different concentrations (0.25 μM to 20 μM final concentration), with technical triplicates for each dose. Data were analyzed using a global variance t-test.

Assay [2] deals with WI-38 cells. As to the kind of experiment: MMS resistance assay. The assay is classed as cell-based, human. Conditions: YES/NO; for Assay 3: MMS-resistant: * indicates partial; for Assay 5: Triple resistant: H2O2, cadmium and MMS. As to the method:
as §1, §2, §3

A further assay concerns C. elegans. Nature of the assay: C. elegans lifespan assays (liquid and plate). Conditions: for ILS at 66 µM: Caenorhabditis elegans. The class given is in vivo, Caenorhabditis elegans.
The subject of assay [3] is WI-38 cells. Conditions: for Assay 1: H2O2-resistant: YES/NO, if NO, possibly due to repeated freezing/thawing of stocks; for EC50: read-out: Est. ED50, dose response 0.6-20 μM, H2O2-resistance.
Assay [4] concerns human dermal fibroblast (HDF) primary cells. As to the kind of experiment: H2O2-resistance in primary human dermal fibroblasts. The assay is classed as cell-based. Conditions: YES/NO.
In another assay the target is T1, human PARP1 (Homo sapiens, UniProt P09874).
T1 construct: purchased Trevigen
Nature of the assay: PARP inhibitor assay (HT Fluorescent Homogeneous PARP Inhibition Assay Kit). Conditions: 10 μM, in vitro. The class given is biochemical. As to the method: (§4) The assay was performed with the HT Fluorescent Homogeneous PARP Inhibition Assay Kit (Trevigen), following manufacturer's instructions. Briefly, nicotinamide adenine dinucleotide, human PARP1 and activated-DNA solution was added onto a 96-well plate. 54 repurchased small molecules, at 10 μM final concentration, were introduced onto the 96-well assay plate and incubated in a humid chamber at room temperature for 30 min in dark. Cycling mixture, with resazurin and cycling enzyme diaphorase, was then added and incubated further for 1 hr in dark. Reaction was terminated by adding the stopping buffer.
as §4, with “(Trevegen),” for “(Trevigen),”, “stopped” for “terminated”

For a further assay, the system named is FOXO3. As to the kind of experiment: qPCR analysis of FOXO3-regulated genes. Conditions: Homo sapiens, 24 h; Assay 10(m); at 10 uM, qPCR; read-out: Induction of FOXO3-regulated genes: TXNIP normalized fold-change. The assay is classed as cell-based, human. As to the method:
(§5) For qPCR analysis, WI-38 cells were treated with small molecules (at 10 μM) (biological quadruplicates) for 24 hrs and processed for RNA isolation and reverse transcription (RT) with the Cells-to-Ct Kit (Life Technologies), following manufacturer's instructions. RT products were diluted with H2O and used for qPCR analysis on an ABI 7300 system (Life Technologies) (technical triplicates). Relative expression levels of target genes were normalized to the genes B2M, PPIA and GAPDH. To knock down the expression of FOXO3 or NRF2, WI-38 cells were transfected, using the RNAiMAX reagents (Life Technologies), with siRNA oligos (at 10 nM final concentration, 10 ml culture medium) for FOXO3 (Life Technologies) or NRF2 (Integrated DNA Technologies) on 10-cm petri dishes for 36 hrs, and then detached and aliquoted onto 96-well (for qPCR analysis) or 384-well plates (for H2O2-stress treatment). ˜24 hrs later, small molecules were introduced and incubated with cells for 24 hrs. Cells were then either processed with the Cells-to-Ct Kit to prepare RT products for qPCR analysis or subjected to H2O2 (700 μM) for 3 hrs and assayed for viability. The knockdown efficiency of FOXO3 or NRF2 was checked at 36 hrs post-transfection and at the end as well.
(§6) For qPCR analysis, WI-38 cells were treated with small molecules (at 10 μM) (biological quadruplicate) for 24 hrs and processed for RNA isolation and reverse transcription (RT) with the Cells-to-Ct Kit (Life Technologies), following manufacturer's instructions. RT products were diluted with H2O and used for qPCR analysis on a LightCycler 480 system (Roche) (technical triplicates). Relative expression levels of target genes were normalized to the genes B2M, PPIA and GAPDH. To knock down the expression of FOXO3 or NRF2, WI-38 cells were transfected with siRNA oligos (at 10 nM final concentration) for FOXO3 (Life Technologies) or NRF2 on 10-cm petri dish for 36 hrs, and then detached and aliquoted onto 96-well plates. ˜24 hrs later, small molecules were introduced and incubated with cells for 24 hrs. Cells were then processed with the Cells-to-Ct Kit to prepare RT products for qPCR analysis. The knockdown efficiency of FOXO3 or NRF2 was checked at 36 hrs post-transfection and at the end as well.
Many perturbations that increase lifespan and stress resistance in animals do so in a FOXO-dependent fashion (Kenyon, 2010c). Humans have several FOXO genes, but FOXO3, which promotes stress resistance in mammalian cell culture (Kops et al., 2002; Nemoto and Finkel, 2002; Tran et al., 2003), is the one that has been linked to exceptional longevity in humans (Anselmi et al., 2009; Flachsbart et al., 2009; Li et al., 2009; Pawlikowska et al., 2009; Soerensen et al., 2010; Willcox et al., 2008). FOXO1, in contrast, appears to be responsible for some symptoms of diabetes in mouse models (Cheng and White, 2011). For this reason, applicants have focused on analyzing potential ability of our small molecules to activate FOXO3. […] Another 4 molecules (Gr-7A, Gr-7C, O12 and O23) could induce robust expression (greater than 1.5-fold) of at least 2 FOXO3 target genes.
Background: Quantitative PCR measures a nucleic acid by following its amplification.

The next assay has as its system NRF2. As to the kind of experiment: qPCR analysis of NRF2-regulated genes. Conditions: Homo sapiens, 24 h, Assay 12(o), at 10 uM, qPCR. The assay is classed as cell-based, human. On the procedure:
as §5, §6
NRF2/SKN-1, the oxidative stress and xenobiotic phase 2 detoxification protein, can extend animal lifespan (Sykiotis and Bohmann, 2008; Tullet et al., 2008). Applicants analyzed these small molecules for their ability to increase the expression of NRF2-regulated genes, including HMOX1 (heme oxygenase (decycling) 1; anti-oxidant), NQO1 (NAD(P)H dehydrogenase, quinone 1; phase 2 detoxification enzyme), GCLC (glutamate-cysteine ligase, catalytic) and GSTM1 (glutathionine S transferase) (Hur and Gray, 2011; Suzuki et al., 2013).

Assay [5] has as its system PC12 cells expressing poly(Q)103-Htt-EGFP. Nature of the assay: Poly(Q) toxicity & viability analysis (cellular model of Huntington's disease). The class given is cell-based, rat. Conditions: 10 uM; YES/NO. As to the method:
Viability assays were performed as described before (Aiken et al., 2004). PC12 cells that stably express the inducible poly(Q)103-Htt-EGFP were grown in culture. […] Cell viability was analyzed 48 hrs later by measuring ATP content with CellTiter-Glo.
Toxic protein aggregation is a key feature of many age-related neurodegenerative diseases, including Alzheimer's and Huntington's disease (Caughey and Lansbury, 2003; Ross and Poirier, 2004). A number of animal models (Phillips et al., 2009) and cell models (Schlachetzki et al., 2013) have been established to study these diseases. For this purpose, PC12 rat pheochromocytoma cells display neuronal features and produce neurotransmitters and have been used extensively to study neuronal phenotypes, including synaptic transmission and neurological diseases. […] In this model, induced expression of poly(Q)103-Htt-EGFP could lead to the formation of aggregates and exert substantial toxicity in cells.

The mark [6] stands for this setting: Assay 2(z), 1.0 × 10^9 bacteria/ml, wild type + FuDR (2012 July), read-out: Lifespan assay in liquid.
Where [7] appears, read: Assay 3(aa), 2.5 × 10^9 bacteria/ml, wild type + FuDR, read-out: Lifespan assay in liquid.
Setting [8] is: Assay 4(ab), 2.0 × 10^10 bacteria/ml, CF512 worms, no FuDR, read-out: Lifespan assay on plates.
Where [9] appears, read: Assay 5(ac), 1.0 × 10^11 bacteria/ml, CF512 worms, no FuDR, read-out: Lifespan assay on plates.
The mark [10] stands for this setting: Assay 6(ad), 2.0 × 10^10 bacteria/ml, CF512 worms, no FuDR, read-out: Lifespan assay on plates.
[11] abbreviates: Assay 7(ae), 1.0 × 10^11 bacteria/ml, CF512 worms, no FuDR, read-out: Lifespan assay on plates.

From patent publication US11413278B2, “Compounds and methods for promoting stress resistance” (priority 2015, dated 2022) come the findings set out here.

Entries after “also recorded” stand apart in the source; their conditions may differ. Where two headings read alike, the source gives them in different places.

T1 sequence (P09874 whole entry): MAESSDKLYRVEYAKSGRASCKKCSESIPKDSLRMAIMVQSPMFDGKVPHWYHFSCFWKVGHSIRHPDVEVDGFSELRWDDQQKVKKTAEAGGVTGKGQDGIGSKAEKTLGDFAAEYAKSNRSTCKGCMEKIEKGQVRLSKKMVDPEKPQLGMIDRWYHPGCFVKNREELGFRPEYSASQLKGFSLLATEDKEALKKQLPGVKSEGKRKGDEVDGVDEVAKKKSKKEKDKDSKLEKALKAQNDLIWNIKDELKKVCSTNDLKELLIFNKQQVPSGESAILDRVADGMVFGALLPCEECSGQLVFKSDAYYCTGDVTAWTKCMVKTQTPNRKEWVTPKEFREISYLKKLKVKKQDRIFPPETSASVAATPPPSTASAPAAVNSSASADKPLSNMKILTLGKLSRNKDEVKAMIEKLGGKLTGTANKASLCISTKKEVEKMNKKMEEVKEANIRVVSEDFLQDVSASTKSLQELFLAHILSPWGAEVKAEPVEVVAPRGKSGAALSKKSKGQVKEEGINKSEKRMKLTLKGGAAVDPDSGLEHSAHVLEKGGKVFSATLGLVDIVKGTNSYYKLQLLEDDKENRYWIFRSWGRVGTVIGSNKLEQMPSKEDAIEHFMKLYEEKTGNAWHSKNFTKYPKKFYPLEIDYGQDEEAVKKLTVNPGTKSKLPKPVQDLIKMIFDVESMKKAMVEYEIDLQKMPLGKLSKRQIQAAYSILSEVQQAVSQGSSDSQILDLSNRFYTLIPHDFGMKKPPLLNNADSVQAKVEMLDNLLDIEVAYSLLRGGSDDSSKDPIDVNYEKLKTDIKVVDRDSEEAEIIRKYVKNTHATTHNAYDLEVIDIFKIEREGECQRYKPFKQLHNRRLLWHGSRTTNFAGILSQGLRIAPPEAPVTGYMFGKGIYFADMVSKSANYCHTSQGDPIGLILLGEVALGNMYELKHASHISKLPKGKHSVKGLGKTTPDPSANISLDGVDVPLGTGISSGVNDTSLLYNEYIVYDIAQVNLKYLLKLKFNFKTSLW

In the case of `CNS(=O)(=O)c1cc(-c2nnc(O)c3ccccc23)ccc1C` [Gr-2A], in the assay on WI-38 cells [1], the “Assay 4: H2O2- & Cd-resistant” value is given as “YES” and the “Assay 2: Cadmium-resistant” value is on record as “YES”. Moreover, in the assay with WI-38 cells [2], the “Assay 3: MMS-resistant” value is given as “YES” and the “Assay 5: Triple resistant” value is “YES”. In the assay with C. elegans (setting [6]), the ILS at 66 µM was 22.7%. Moreover, in the assay with C. elegans (setting [7]), the ILS at 66 µM stood at 10.8%. Besides, the ILS at 66 µM in the assay with C. elegans (setting [8]) was 11.4%. In the assay on WI-38 cells [3], the “Assay 1: H2O2-resistant” value is “YES” and the EC50 was 3.05 µM. For the same compound, in assay [4], the “Assay 6: H2O2-resistant, at 10 uM, human dermal fibroblast (HDF) primary cells” value (shortened to “Assay 6: H2O2-resistant, at 10 uM”) is “YES”. Besides, on human PARP1, the “Inhibition of PARP1” value is listed as “inhibitors of PARP1; also recorded: PARP inhibitors”.
For `Oc1nnc(Cc2ccccc2)c2ccccc12` [Gr-2C], the “Assay 4: H2O2- & Cd-resistant” value in the assay on WI-38 cells [1] is listed as “YES”. In addition, in the assay on WI-38 cells [1], the “Assay 2: Cadmium-resistant” value is recorded as “YES”. Further, the “Assay 3: MMS-resistant” value in the assay with WI-38 cells [2] is reported as “YES”. The “Assay 5: Triple resistant” value with WI-38 cells [2] is “YES”. Moreover, the ILS at 66 µM in the assay with C. elegans (setting [6]) stood at 15.3%; in the assay on C. elegans (setting [7]), 0.1%; in the assay with C. elegans (setting [8]), 7.6%. Besides, the values for the fold induction at 10 µM in the assay on FOXO3 and with NRF2 (read-out: Induction of NRF2-regulated genes: HMOX1 normalized fold-change) were 1.2 and 1.23, respectively. Further, in the assay with WI-38 cells [3], the “Assay 1: H2O2-resistant” value is reported as “YES”. Moreover, the EC50 with WI-38 cells [3] is 3.12 µM. Besides, the “Assay 6: H2O2-resistant, at 10 uM” value in assay [4] is “YES”. In addition, the “Inhibition of PARP1” value on human PARP1 was “inhibitors of PARP1; also recorded: PARP inhibitors”.
Consider `CN1CCC=C(Cc2nnc(O)c3ccccc23)C1` [Gr-2D], for which, in the assay with WI-38 cells [3], the EC50 is 3.42 µM. The “Inhibition of PARP1” value at human PARP1 was “inhibitors of PARP1”.
On to `Cc1sc2nc(SCC(=O)N3CCOCC3)nc(O)c2c1C` [O3], for which the “Assay 4: H2O2- & Cd-resistant” value in the assay with WI-38 cells [1] is reported as “YES”. Also, the “Assay 2: Cadmium-resistant” value in the assay on WI-38 cells [1] is on record as “YES”. In the assay on WI-38 cells [2], the “Assay 3: MMS-resistant” value is “YES”. Further, the “Assay 5: Triple resistant” value in the assay on WI-38 cells [2] is “YES”. Moreover, the ILS at 66 µM was found to be 14.1% in the assay with C. elegans (setting [6]); 14.8% with C. elegans (setting [7]); 15.9% with C. elegans (setting [8]); 12% with C. elegans (setting [9]); 8.7% in the assay on C. elegans (setting [10]); 1.4% in the assay with C. elegans (setting [11]). For the same compound, the “Assay 1: H2O2-resistant” value with WI-38 cells [3] was “YES”. The EC50 in the assay with WI-38 cells [3] was found to be 20 µM. The “Assay 6: H2O2-resistant, at 10 uM” value in assay [4] is listed as “YES”. In the assay with NRF2 (read-out: Induction of NRF2-regulated genes: NQO1 normalized fold-change), the fold induction at 10 µM amounted to 1.21. Further, at human PARP1, the “Inhibition of PARP1” value is recorded as “inhibitors of PARP1; also recorded: PARP inhibitors”.
Take `O=C1NC(=O)c2cccc3cccc1c23` [O7]: the “Assay 4: H2O2- & Cd-resistant” value in the assay on WI-38 cells [1] is on record as “YES”. Moreover, in the assay on WI-38 cells [1], the “Assay 2: Cadmium-resistant” value was “YES”. Also, the “Assay 3: MMS-resistant” value with WI-38 cells [2] is listed as “YES”. Also, the “Assay 5: Triple resistant” value in the assay with WI-38 cells [2] was “YES”. For the same compound, the ILS at 66 µM is 19.7% with C. elegans (setting [6]); 26% in the assay on C. elegans (setting [7]); 33.7% with C. elegans (setting [8]); 10.2% in the assay on C. elegans (setting [9]); 5.8% in the assay on C. elegans (setting [10]); -10.5% in the assay with C. elegans (setting [11]). The “Lifespan extension of C. elegans” value with C. elegans (across independent trials) was 10%-34%. The “Trials with lifespan extension” value in the assay with C. elegans (positive of total trials) is 4 of 4. Further, the “Assay 1: H2O2-resistant” value in the assay on WI-38 cells [3] is recorded as “YES”. Moreover, the EC50 in the assay with WI-38 cells [3] turned out to be 5.5 µM. Moreover, the “Assay 6: H2O2-resistant, at 10 uM” value in assay [4] is reported as “YES”. The “Assay 20: Huntington's poly-Q toxicity attenuation” value in assay [5] was “YES”. Further, the “Inhibition of PARP1” value on human PARP1 is reported as “confirmed as PARP inhibitors”.
